Experimental data as given in patent US7169407B1, “Carbonyl stress-decreasing agent” (Kiyoshi Kurokawa, priority 1999, dated 2007).

What was measured:
[1] = Carbonyl compound-trapping effect of biguanide agents in phosphate buffer (Example 1); conditions: 3 mM biguanide agent, 0.1 mM carbonyl compounds each, 0.1M phosphate buffer pH7.4, 37° C., over incubation period; HPLC
[2] = as above; conditions: 3 mM biguanide agent, 0.1 mM carbonyl compounds each, 0.1M phosphate buffer pH7.4, 37° C., over incubation period; HPLC; remark: listed apart in the source

SMILES | concentration of glyoxal [1] | concentration of methylglyoxal [2]
CCCCNC(=N)NC(=N)N [buformin, butyl biguanide] | markedly decreased | markedly decreased
N=C(N)NC(=N)NCCc1ccccc1 [phenformin, phenethyl biguanide] | markedly decreased | markedly decreased
